Laboratory results from US9993554B2 (CENTRO NACIONAL DE INVESTIGACIONES ONCOLOGICAS (CNIO), priority 2010, dated 2018).
Like-named read-outs stand apart in the source and are kept apart here.

Tests used:
PI3K (p110α/p85α) = biological target: T1, PI3K (p110α/p85α) (Homo sapiens, UniProt P42336); test: PI3K activity assay (ADP Hunter Plus); assay type: biochemical
T1 construct: purchased Carna Biosciences 07CBS-0402A
Experimental: The kinase activity was measured by using the commercial ADP Hunter™ Plus assay available from DiscoveRx (#33-016), which is a homogeneous assay to measure the accumulation of ADP, a universal product of kinase activity. […] Reaction was carried out for 1 hour at 25° C. Reagent A and B were sequentially added to the wells and plates were incubated for 30 min at 37° C. […] Values were normalized against the control activity included for each enzyme (i.e., 100% PI3 kinase activity, without compound). These values were plot against the inhibitor concentration and were fit to a sigmoid dose-response curve by using the Graphad software.

phospho-Ser-473-Akt = test: AKT phosphorylation inhibition, Western blot cell assay; assay type: cell-based; details: Homo sapiens; cell assay procedure; read-out: IC50 of AKT Phosphorylation Inhibition, p-AKT cell
Experimental: The cell lines were obtained from the American Type Culture Collection (ATCC). U2OS (human osteosarcoma) was cultured in Dulbecco's modified Eagle's medium (DMEM). PC3 (human prostate carcinoma), MCF7 (human breast cardinoma), HCT116 (human colon carcinoma), 768-0 (human neuroblastoma), U251 (human glyoblastoma) were grown in RPMI. All media were supplemented with 10% fetal bovine serum (FBS) (Sigma) and antibiotics-antimycotics. Cell were maintained in a humidified incubator at 37° C. with 5% CO2 and passaged when confluent using trypsin/EDTA.
Subconfluent cells were incubated under different conditions and washed twice with TBS prior to lysis. Lysis buffer was added containing 50 mM Tris HCl, 150 mM NaCl, 1% NP-40, 2 mM Na3VO4, 100 mM NaF, 20 mM Na4P2O7 and protease inhibitor cocktail (Roche Molecular Biochemicals). The proteins were resolved on 10% SDS-PAGE and transferred to nitrocellulose membrane (Schleicher & Schuell, Dassel, Germany). The membranes were incubated overnight at 4° C. with antibodies specific for Akt, phospho-Ser-473-Akt (Cell Signaling Technology) and α-tubulin (Sigma), they were washed and then incubated with IRDye800 conjugated anti-mouse and Alexa Fluor 680 goat anti-rabbit IgG secondary antibodies. The bands were visualized using an Odyssey infrared imaging system (Li-Cor Biosciences).

[1] = semi-quantitative results, read-out: PI3Kα IC50 (semi-quantitative class)
[2] = quantitative results, Table 4, read-out: PI3Kα IC50
[3] = quantitative results, read-out: PI3Kα IC50

T1 sequence (P42336 whole entry): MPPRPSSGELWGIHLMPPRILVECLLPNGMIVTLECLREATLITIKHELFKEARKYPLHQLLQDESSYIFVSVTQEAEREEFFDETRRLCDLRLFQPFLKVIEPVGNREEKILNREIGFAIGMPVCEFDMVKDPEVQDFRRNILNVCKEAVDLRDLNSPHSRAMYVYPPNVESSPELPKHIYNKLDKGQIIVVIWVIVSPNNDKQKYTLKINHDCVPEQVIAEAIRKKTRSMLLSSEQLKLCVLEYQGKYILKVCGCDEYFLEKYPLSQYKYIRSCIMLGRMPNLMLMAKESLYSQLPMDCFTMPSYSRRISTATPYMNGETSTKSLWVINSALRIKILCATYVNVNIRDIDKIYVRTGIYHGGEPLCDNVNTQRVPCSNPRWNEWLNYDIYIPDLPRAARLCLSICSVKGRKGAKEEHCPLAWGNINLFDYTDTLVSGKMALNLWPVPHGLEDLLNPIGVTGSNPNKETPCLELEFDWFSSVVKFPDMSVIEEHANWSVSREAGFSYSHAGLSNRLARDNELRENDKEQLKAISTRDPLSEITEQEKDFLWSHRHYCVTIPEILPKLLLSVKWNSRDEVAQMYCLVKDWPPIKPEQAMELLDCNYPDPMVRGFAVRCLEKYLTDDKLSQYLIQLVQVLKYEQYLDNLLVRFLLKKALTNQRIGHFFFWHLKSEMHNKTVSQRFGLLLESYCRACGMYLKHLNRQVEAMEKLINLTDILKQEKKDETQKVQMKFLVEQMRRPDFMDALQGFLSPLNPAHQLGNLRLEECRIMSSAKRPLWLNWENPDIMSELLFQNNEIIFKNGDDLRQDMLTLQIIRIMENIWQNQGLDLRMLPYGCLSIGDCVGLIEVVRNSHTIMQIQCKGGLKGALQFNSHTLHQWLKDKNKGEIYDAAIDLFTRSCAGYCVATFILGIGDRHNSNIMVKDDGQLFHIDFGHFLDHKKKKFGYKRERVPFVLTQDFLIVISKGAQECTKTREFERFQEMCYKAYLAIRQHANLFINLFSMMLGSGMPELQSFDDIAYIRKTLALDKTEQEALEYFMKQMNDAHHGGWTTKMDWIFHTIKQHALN
T1 sequence (P27986 whole entry partner): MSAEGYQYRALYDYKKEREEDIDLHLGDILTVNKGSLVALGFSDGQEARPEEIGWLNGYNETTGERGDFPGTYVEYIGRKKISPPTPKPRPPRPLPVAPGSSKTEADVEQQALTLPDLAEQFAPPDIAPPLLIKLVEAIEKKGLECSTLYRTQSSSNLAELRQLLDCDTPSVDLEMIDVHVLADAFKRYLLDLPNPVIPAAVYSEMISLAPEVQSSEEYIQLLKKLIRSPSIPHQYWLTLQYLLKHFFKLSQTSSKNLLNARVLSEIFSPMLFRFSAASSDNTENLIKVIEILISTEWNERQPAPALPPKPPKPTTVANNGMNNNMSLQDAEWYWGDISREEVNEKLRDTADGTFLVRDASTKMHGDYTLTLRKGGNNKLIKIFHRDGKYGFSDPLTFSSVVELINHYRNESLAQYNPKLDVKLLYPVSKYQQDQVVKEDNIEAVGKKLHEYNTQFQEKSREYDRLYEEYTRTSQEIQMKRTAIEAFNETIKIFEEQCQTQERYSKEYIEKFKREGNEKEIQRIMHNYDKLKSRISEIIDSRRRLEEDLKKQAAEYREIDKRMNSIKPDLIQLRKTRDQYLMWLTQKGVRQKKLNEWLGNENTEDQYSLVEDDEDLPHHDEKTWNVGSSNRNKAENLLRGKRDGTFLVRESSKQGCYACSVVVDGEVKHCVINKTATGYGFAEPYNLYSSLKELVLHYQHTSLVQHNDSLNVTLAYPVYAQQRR

SMILES | IC50 (PI3K (p110α/p85α); [1]) [nM] | IC50 (PI3K (p110α/p85α); [3]) [nM] | also measured
CS(=O)(=O)N1CCN(C(=O)c2cn3cc(-c4cccc5[nH]ncc45)nc(N4CCOCC4)c3n2)CC1 [Compound 2-16] | 100 to 1000 | – | IC50 (phospho-Ser-473-Akt): 503 nM
CS(=O)(=O)N1CCN(Cc2cn3cc(-c4ccc5[nH]ncc5c4)nc(N4CCOCC4)c3n2)CC1 [Compound 2-127] | – | – | IC50 (PI3K (p110α/p85α); [2]): 37000 nM
CS(=O)(=O)N1C2CCC1CN(Cc1cn3cc(-c4cnc(N)nc4)nc(N4CCOCC4)c3n1)C2 [Compound 2-228] | – | 108 | –
Cc1cn2c(Cl)c(-c3cccc(O)c3)nc(N3CCOCC3)c2n1 [Compound 2-49] | 100 to 1000 | – | –
CN1CCN(c2cnc3c(N4CCOCC4)nc(-c4cccc5[nH]ncc45)cn23)CC1 [Compound 2-38] | 100 to 1000 | – | –
Oc1cccc(-c2cn3c(N4CCNCC4)cnc3c(N3CCOCC3)n2)c1 [Compound 2-40] | 100 to 1000 | – | –
COc1ccc(-c2cn3cc(CN4CCN(S(C)(=O)=O)CC4)nc3c(N3CCOCC3)n2)cn1 [Compound 2-61] | – | 4500 | –
CS(=O)(=O)N1CCN(c2cnc3c(N4CCOCC4)nc(-c4cccc(O)c4)cn23)CC1 [Compound 2-39] | 100 to 1000 | – | –
Cc1cn2cc(-c3cccc(NS(C)(=O)=O)c3)nc(N3CCOCC3)c2n1 [Compound 2-28] | – | 50000 | –
CS(=O)(=O)N1CCN(Cc2cn3c(Cl)c(-c4cccc5[nH]ncc45)nc(N4CCOCC4)c3n2)CC1 [Compound 2-60] | 100 to 1000 | – | –
CS(=O)(=O)N1CC2(CCN(Cc3cn4cc(-c5cccc6[nH]ncc56)nc(N5CCOCC5)c4n3)CC2)C1 [Compound 2-145] | – | – | IC50 (PI3K (p110α/p85α); [2]): 3000 nM
COc1cncc(-c2cn3cc(CN4CCN(S(C)(=O)=O)CC4)nc3c(N3CCOCC3)n2)c1 [Compound 2-65] | > 1000 | – | –
CN1CCN(c2cnc3c(N4CCOCC4)nc(-c4cccc(O)c4)cn23)CC1 [Compound 2-37] | 100 to 1000 | – | –
CS(=O)(=O)N1CCN(Cc2cn3cc(-c4ccc(N)nc4)nc(N4CCOCC4)c3n2)CC1 [Compound 2-66] | – | 169 | IC50 (phospho-Ser-473-Akt): 14 nM
O=C(c1cn2cc(-c3cccc4[nH]ncc34)nc(N3CCOCC3)c2n1)N1CCNCC1 [Compound 2-18] | 100 to 1000 | – | –

Now from value to compound, other results behind:

IC50 (PI3K (p110α/p85α); [1]) [nM] | IC50 (PI3K (p110α/p85α); [3]) [nM] | SMILES | also measured
100 to 1000 | – | COc1ncc(-c2cn3cc(CN4CCN(S(C)(=O)=O)CC4)nc3c(N3CCOCC3)n2)cn1 [Compound 2-67] | IC50 (phospho-Ser-473-Akt): 198 nM
100 to 1000 | – | Cc1nc2c(N3CCOCC3)nc(-c3cccc4[nH]ncc34)cn2c1C1CCN(C)CC1 [Compound 2-58] | –
100 to 1000 | – | CS(=O)(=O)N1CCN(c2cnc3c(N4CCOCC4)nc(-c4cccc5[nH]ncc45)cn23)CC1 [Compound 2-41] | –
– | 113 | CS(=O)(=O)N1CCN(Cc2cn3cc(-c4cnc5[nH]ccc5c4)nc(N4CCOCC4)c3n2)CC1 [Compound 2-75] | IC50 (phospho-Ser-473-Akt): 77 nM
– | 158 | CNC(=O)Nc1ccc(-c2cn3cc(CN4CCN(S(C)(=O)=O)CC4)nc3c(N3CCOCC3)n2)cc1 [Compound 2-82] | –
– | 11000 | CS(=O)(=O)N1CCN(Cc2cn3cc(-c4ccc(C(N)=O)cc4)nc(N4CCOCC4)c3n2)CC1 [Compound 2-68] | –
– | 10000 | Cc1cn2cc(-c3ccc4cc[nH]c4c3)nc(N3CCOCC3)c2n1 [Compound 2-25] | –
